From patent US4447611A, “Benzo-fused and heterocyclic fused imidazole anti-ulcer agents” (American Home Products Corporation, priority 1982, dated 1984)

What was measured:
H2 histamine receptors = target: T1, H2 histamine receptors (Cavia porcellus, UniProt P47747); assay: guinea pig heart atrium test (histamine-induced positive chronotropic response in spontaneously beating right atrium); type: cell-based; conditions: 32° C., pH 7.4, 30 minutes after addition of compound, vs histamine dose-response
T1 construct: from tissue; host or cells: guinea pig right atrium (isolated, spontaneously beating)
T1 sequence (P47747 whole entry): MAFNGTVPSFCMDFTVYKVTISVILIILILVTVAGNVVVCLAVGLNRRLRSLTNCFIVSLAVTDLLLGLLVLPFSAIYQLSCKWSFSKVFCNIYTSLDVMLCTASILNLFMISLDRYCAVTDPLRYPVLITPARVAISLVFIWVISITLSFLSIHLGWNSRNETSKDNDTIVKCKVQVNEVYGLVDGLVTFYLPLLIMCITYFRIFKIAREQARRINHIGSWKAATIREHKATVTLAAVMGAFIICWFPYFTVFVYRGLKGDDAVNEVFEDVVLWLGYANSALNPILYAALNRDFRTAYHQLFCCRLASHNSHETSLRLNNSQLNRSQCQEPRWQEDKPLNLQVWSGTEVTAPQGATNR
Method: The guinea pig heart atrium test is carried out as follows:
The tissue is allowed to stabilize over 1 hour. Individual contractions are recorded with a force-displacement transducer through a strain gauge coupler. A control dose-response curve to histamine in the above described tissue bath is obtained after which the tissue is washed 3 times and allowed to re-equilibrate to basal rate. The test compound is added to the tissue bath at the desired final concentration. Thirty minutes after addition of the compound, a fresh histamine dose response curve is again obtained. Then the response to histamine in the presence of antagonist is compared to the histamine control response. This procedure is repeated, using fresh tissues, for each concentration of antagonist tested.

rat gastric secretion = assay: gastric secretion in the pylorus-ligated rat (modified Shay procedure); type: in vivo; conditions: 32 mg/kg, interduodenally (i.d.), four hours after ligation, male Charles River rats
Method: The procedures for the results of these tests are presented at the end of the following examples, which will serve to illustrate the present invention.
The procedure for testing gastric secretion in the rat, a modification of the procedure of Shay et al., Gastroenterology, 26, 906-13 (1954) is carried out as follows:
Male Charles River rats weighing 200-300 grams are deprived of food but not water for 24 hours prior to use. Water is, however, withheld during the experiment. The rats are weighed, anesthetized, and the pylorus ligated according to the method of Shay et al. Treatment or vehicle control is then administered interduodenally (i.d.). Rats are housed 2/cage and sacrificed with CO2 four hours after ligation. The stomachs are removed, rinsed, and contents emptied into a graduated centrifuge tube. The tubes are centrifuged for 20 minutes at 2,000 RPM and the volume of gastric juice recorded. Any samples obviously contamined by feces, food or hemolysis are eliminated. An aliquot of each is frozen for later analysis of Na^+, K^+ and Cl^- concentration. The pH is measured and 1 ml. of gastric juice is titrated with 0.1 N NaOH to a pH of 7.0-7.4 Titratable acid output is calculated in microequivalents and the percent inhibition of acid output is calculated as follows: [formula]

[1] = cited from earlier work

| pA2 Value (apparent dissociation constant of the H2 antagonist) (H2 histamine receptors) | SMILES | % Inhibition (of acid output) (rat gastric secretion) | confusional states (in words) ([1]; elderly patients) | anti-androgenic activity (in words) ([1]; patients) | duration of action (in words) ([1]; patients) |
| --- | --- | --- | --- | --- | --- |
| 7.1 | c1cc(CN2CCCCC2)cc(OCCCNc2nc3ccccc3[nH]2)c1 [A, 2-[3-[3-[(1-piperidinylmethyl)]phenoxy]propylamine]benzimidazole] | 65% |  |  |  |
|  | CN/C(=N/CCSCc1nc[nH]c1C)NC#N [Cimetidine] |  | a tendency to cause confusional states in elderly patients | anti-androgenic activity | short duration of action |
